Laboratory results: patent publication US4996227A, “3-(heteroarylalkyene)- and 3-(arylalkylene)-2,4(3H,5H)-heterocyclic diones as cancer chemotherapy drugs” (priority 1989, dated 1991)

Tests used:
Format in all cases: cell-based
human tumor H5340 ** = assay: Human Tumor Stem Cell Assay, colony growth after one hour exposure; conditions: 1 h
Source text: (§1) The in vitro Human Tumor Stem Cell Assay procedure described as follows has several advantages for testing the effectiveness of chemotherapy drugs such as the 3-(heteroarylalkylene)-2,4(3H,5H)-furandiones. The first advantage is that fresh tumor cells from a variety of tumor types were used rather than a small number of cell lines which have undergone severe selection pressures as they are passed in vitro. The second advantage is that only the anchorage-independent tumor cells will form colonies in soft agar so that any non-malignant cells present in the sample will not form colonies. Perhaps the most important advantage, however, is the emphasis on cells which have the ability to form colonies. These cells, which are generally called stem cells, usually comprise only a small percentage of all tumor cells. They are thought to be the most important cells for growth and distant spread of a tumor. In particular, these cells have the potential to leave the primary tumor and form new tumors at distant sites (called metastases). It is the effectiveness against these very important stem cells that the Human Tumor Stem Cell Assay measures.
(§2) One of the 3-(heteroarylalkylene)-2,4(3H,5H)-furandione compounds, 3-[(5-methyl-2-thienyl) methylene]-2,4(3H,5H)-furandione was evaluated against a series of 10 human tumors in the in vitro Human Tumor Cell Assay, along with conventional and standard chemotherapy agents.
(§3) In the procedure, a single cell suspension was prepared from tumors excised from patients during therapeutic or diagnostic surgical procedures. The human tumor cells were exposed to known anticancer drugs or to [(5-methyl-2-thienyl)methylene]-2,4 (3H, 5H)-furandione at a low (0.2 mcg/ml) or a high (1.0 mcg/ml) concentration for one hour. […] The suspension was washed with tissue culture medium to remove the drug.
(§4) The suspension was then cultured in a double soft agar suspension. Control cells which had been treated identically, except for exposure to the drugs, were also cultured. After one to two weeks, both the tumor cells and the control cells formed colonies in the soft agar which were enumerated under a microscope. The number of colonies grown from the drug-treated cells was compared to the number of colonies grown from the control cells, and the percentage growth after exposure to the drug was calculated.
(§5) The results are illustrated in Table 1, wherein the various numbers indicate the percentage of growth. For example, a small number like 6 means that the number of colonies is only 6% of the number without addition of the compound. On the other hand, a large number like 120 means that the number of colonies is 20% greater with the compound than without.
(§6) Of the nine tumors for which the higher concentration (1.0 mcg/ml) of the furandione was used, five gave inhibition of colony growth corresponding to borderline sensitive (30-50% growth) and four gave inhibition corresponding to sensitivity (0-30% growth). Clinical drugs are normally tested at 10% of their peak plasma concentration. For the standard chemotherapy drugs shown in Table 1, the low concentration (LO) corresponds to this 10% level, and the high concentration (HI) is at 50% of the peak plasma concentration. Of the same nine tumors, only two would have been rated as sensitive or borderline sensitive to any of the other clinical drugs tested.

[1] = test system: human tumor H5322 STOMACH; assay: as above; conditions: 1 h
Source text: as §1, §2, §3, §4, §5, §6

human tumor H5315 BREAST = assay: as above; conditions: LO: furandione 0.2 mcg/ml; standard drugs 10% of peak plasma concentration; 1 h
Source text: as §1, §2, §3, §4, §5, §6

human tumor H5337 COLON = assay: as above; conditions: 1 h
Source text: as §1, §2, §3, §4, §5, §6

human tumor H5319 BREAST = assay: as above; conditions: 1 h
Source text: as §1, §2, §3, §4, §5, §6

human tumor H5331 OVARY = assay: as above; conditions: 1 h
Source text: as §1, §2, §3, §4, §5, §6

human tumor H5318 OVARY = assay: as above; conditions: 1 h
Source text: as §1, §2, §3, §4, §5, §6

human tumor H5349 BREAST = assay: as above; conditions: 1 h
Source text: as §1, §2, §3, §4, §5, §6

[2] = test system: human tumor H5325 SARCOMA; assay: as above; conditions: 1 h
Source text: as §1, §2, §3, §4, §5, §6

human tumor H5330 THYMUS = assay: as above; conditions: HI: furandione 1.0 mcg/ml; standard drugs 50% of peak plasma concentration; 1 h
Source text: as §1, §2, §3, §4, §5, §6

[3] = test system: K562 cells (human chronic granulocytic leukemia); assay: K562 human leukemia cell suspension culture, cell concentration; conditions: 1 ug/ml
Procedure: In this example, 1 mcg/ml of 3[[5-methyl-2-thienyl]methylene]2, 4 (3H, 5H) furandione was compared to 1 mcg/ml of 3[[3-methyl-2-thienyl]methylene]2, 4 (3H, 5H) furandione.
A conventionally available cell line (K562) derived from human chronic granulocytic leukemia was employed in an in vitro procedure. The leukemia cell line was cultured in a suspension of RPMI 1640 plus 10% fetal calf serum. All initial cell concentrations for the cultures were 0.65 times 10^5 cells/ml. Four separate suspension cultures were employed with the first suspension culture having no additions. The second suspension culture included 100 microliters of the solvent DMSO per 10 ml of culture (control). The third culture contained 1 ug/ml of 3[[5-methyl-2 thienyl]methylene]-2, 4 (3H, 5H) furandione and the fourth culture contained 1 ug/ml of 3[[3-methyl-2-thienyl]methylene]-2, 4 (3H, 5H) furandione. The cell concentration of each of the four cultures was determined. After three days and again after five days.

[4] = HI: furandione 1.0 mcg/ml, standard drugs 50% of peak plasma concentration
[5] = LO: furandione 0.2 mcg/ml, standard drugs 10% of peak plasma concentration

Compound: CC[C@]1(O)C[C@@H]2CN(CCc3c([nH]c4ccccc34)[C@@](C(=O)OC)(c3cc4c(cc3OC)N(C)[C@H]3[C@@](O)(C(=O)OC)[C@H](OC(C)=O)[C@]5(CC)C=CCN6CC[C@]43[C@@H]65)C2)C1 [VBL, VINBLASTINE]
- percentage of growth (colonies vs control) (human tumor H5340 **; [4]): 44%
- percentage of growth (colonies vs control) (human tumor H5340 **; [5]): 79%
- percentage of growth (colonies vs control) [1, 4]: 35%
- percentage of growth (colonies vs control) [1, 5]: 40%
- percentage of growth (colonies vs control) (human tumor H5315 BREAST): 50%
- percentage of growth (colonies vs control) (human tumor H5337 COLON; [4]): 67%
- percentage of growth (colonies vs control) (human tumor H5337 COLON; [5]): 60%
- percentage of growth (colonies vs control) (human tumor H5319 BREAST; [4]): 6%
- percentage of growth (colonies vs control) (human tumor H5319 BREAST; [5]): 5%
- percentage of growth (colonies vs control) (human tumor H5331 OVARY; [4]): 45%
- percentage of growth (colonies vs control) (human tumor H5331 OVARY; [5]): 115%
- percentage of growth (colonies vs control) (human tumor H5318 OVARY; [4]): 60%
- percentage of growth (colonies vs control) (human tumor H5318 OVARY; [5]): 39%
- percentage of growth (colonies vs control) (human tumor H5349 BREAST; [4]): 65%
- percentage of growth (colonies vs control) (human tumor H5349 BREAST; [5]): 70%
- percentage of growth (colonies vs control) [2, 4]: 8%
- percentage of growth (colonies vs control) [2, 5]: 9%

Compound: Nc1nc(=S)c2[nH]cnc2[nH]1 [Compound 6TG, 6THOQUANINE]
- percentage of growth (colonies vs control) (human tumor H5340 **; [4]): 50%
- percentage of growth (colonies vs control) (human tumor H5340 **; [5]): 75%
- percentage of growth (colonies vs control) [1, 4]: 122%
- percentage of growth (colonies vs control) [2, 4]: 69%

Compound: N.N.[Cl][Pt][Cl] [CPDD, CISPLATIN]
- percentage of growth (colonies vs control) (human tumor H5340 **; [4]): 125%
- percentage of growth (colonies vs control) (human tumor H5330 THYMUS): 75%
- percentage of growth (colonies vs control) [1, 4]: 56%
- percentage of growth (colonies vs control) [1, 5]: 63%
- percentage of growth (colonies vs control) (human tumor H5337 COLON; [4]): 41%
- percentage of growth (colonies vs control) (human tumor H5337 COLON; [5]): 98%
- percentage of growth (colonies vs control) (human tumor H5331 OVARY; [4]): 69%
- percentage of growth (colonies vs control) (human tumor H5331 OVARY; [5]): 87%
- percentage of growth (colonies vs control) (human tumor H5318 OVARY; [4]): 38%
- percentage of growth (colonies vs control) (human tumor H5318 OVARY; [5]): 109%
- percentage of growth (colonies vs control) (human tumor H5349 BREAST; [4]): 54%
- percentage of growth (colonies vs control) (human tumor H5349 BREAST; [5]): 48%
- percentage of growth (colonies vs control) [2, 5]: 62%

Compound: Cc1ccsc1C=C1C(=O)COC1=O [3 methyl, 3[[3-methyl-2-thienyl]methylene]-2, 4 (3H, 5H) furandione]
- effect on leukemia culture [3]: also shows a decrease in the leukemia cell concentration culture, but the decrease is not as great as with the other compound
- Cell Conc. ([3]; 3 Days): 50000 mL⁻¹
- Cell Conc. ([3]; 5 Days): 150000 mL⁻¹
- cell concentration vs 5-methyl analog ([3]; after five days): slightly higher cell concentration than the 5-methyl analog

Compound: CC[C@]1(O)C[C@H]2CN(CCc3c([nH]c4ccccc34)[C@@](C(=O)OC)(c3cc4c(cc3OC)N(C=O)[C@H]3[C@@](O)(C(=O)OC)[C@H](OC(C)=O)[C@]5(CC)C=CCN6CC[C@]43[C@@H]65)C2)C1 [VCR, VINCRISTINE]
- percentage of growth (colonies vs control) (human tumor H5340 **; [4]): 113%

Compound: CCOC(=O)NC1=C(N2CC2)C(=O)C(NC(=O)OCC)=C(N2CC2)C1=O [AZO, AZIRIDIMYLBENYOQUINONE]
- percentage of growth (colonies vs control) (human tumor H5340 **; [4]): 107%

Compound: CO[C@@]12[C@H](COC(N)=O)C3=C(C(=O)C(C)=C(N)C3=O)N1C[C@@H]1N[C@@H]12 [MTC, MITOMYCIN C]
- percentage of growth (colonies vs control) (human tumor H5330 THYMUS): 90%
- percentage of growth (colonies vs control) [1, 4]: 69%
- percentage of growth (colonies vs control) (human tumor H5315 BREAST): 59%
- percentage of growth (colonies vs control) (human tumor H5319 BREAST; [4]): 72%
- percentage of growth (colonies vs control) (human tumor H5331 OVARY; [4]): 102%
- percentage of growth (colonies vs control) (human tumor H5318 OVARY; [4]): 90%

Compound: O=NN(CCCl)C(=O)NCCCl [BCNU, BISCHLORETHYLNITROSOUREA]
- percentage of growth (colonies vs control) (human tumor H5330 THYMUS): 74%
- percentage of growth (colonies vs control) (human tumor H5315 BREAST): 108%
- percentage of growth (colonies vs control) (human tumor H5337 COLON; [4]): 88%
- percentage of growth (colonies vs control) (human tumor H5319 BREAST; [4]): 122%
- percentage of growth (colonies vs control) (human tumor H5331 OVARY; [4]): 111%
- percentage of growth (colonies vs control) (human tumor H5318 OVARY; [4]): 93%

Compound: COc1cccc2c1C(=O)c1c(O)c3c(c(O)c1C2=O)C[C@@](O)(C(=O)CO)C[C@@H]3O[C@H]1C[C@H](N)[C@H](O)[C@H](C)O1 [ADR, ADRIAMYCIN]
- percentage of growth (colonies vs control) (human tumor H5330 THYMUS): 98%
- percentage of growth (colonies vs control) [1, 4]: 65%
- percentage of growth (colonies vs control) [1, 5]: 55%
- percentage of growth (colonies vs control) (human tumor H5315 BREAST): 75%
- percentage of growth (colonies vs control) (human tumor H5319 BREAST; [4]): 100%
- percentage of growth (colonies vs control) (human tumor H5331 OVARY; [4]): 105%
- percentage of growth (colonies vs control) (human tumor H5318 OVARY; [4]): 60%
- percentage of growth (colonies vs control) (human tumor H5318 OVARY; [5]): 76%
- percentage of growth (colonies vs control) (human tumor H5349 BREAST; [4]): 82%
- percentage of growth (colonies vs control) [2, 4]: 11%
- percentage of growth (colonies vs control) [2, 5]: 22%
